# Measurements from patent publication US8138148B2, “GDNF derived peptides” (Copenhagen University, priority 2005, dated 2012).
# Legend:
# dopaminergic neurons = experiment: Survival assay, dopaminergic neurons (6-OHDA); type: cell-based, Wistar rat; conditions: 100 μM 6-OHDA for two hours, further 24 hours with peptide
# Description: Dopaminergic neurons were prepared from Wistar rat embryos at embryonic day 15 (Charles River, Sulzfeld, Germany or Møllegaard, Denmark). A pregnant rat was sacrificed and the uterus was taken out and kept on ice in Hank's balanced salt solution (HBSS; Gibco, BRL). The ventral part of the mesencephalon was dissected from the embryonic brains, homogenised on ice in Gey's balanced salt solution (GBSS; Gibco, BRL) supplemented with 5 g glucose/l (Sigma-Aldrich) and thereafter trypsinised. The dissociated cells were washed in the presence of DNAse 1 and soybean trypsin inhibitor (Sigma-Aldrich).
# Dopaminergic neurons were seeded at a density of 150,000 cells/cm^2 in 24-well cell culture plates coated with poly-D-lysine as described above. The neurons were left to differentiate for six days without or with various concentrations of peptide, after which 6-OHDA was added at a concentration of 100 μM for two hours. A stock solution was prepared by dissolving 6-OHDAto a concentration of 10 mM in 0.1% (w/v) sodium metabisulphite in order to prevent oxidation. After two hours with 6-OHDA, the medium was changed to Neurobasal medium with supplements and peptide, and the cell cultures were further incubated for 24 hours, fixed and immunostained for tyrosine hydroxylase. 98 images for each experimental condition in each individual experiment were automatically video-recorded.
# Ig1-2 modules of NCAM = experiment: Surface plasmon resonance (SPR) binding analysis, NCAM Ig1-2; conditions: immobilized receptor protein, 25° C., PBS pH 7.4
# Description: (§1) Analysis of binding was performed employing a BIAcoreX instrument (Biosensor AB, Uppsala, Sweden) at 25° C. using 10 mM pH 7.4 sodium phosphate containing 150 mM NaCl as running buffer (phosphate-buffered saline, PBS). The flow-rate was 5 μl/min. Data were analysed by non-linear curve-fitting using the manufacturer's software. The receptor proteins, e.g. NCAM Ig1-Ig2 and GFR proteins, were immobilized on a sensor chip CM5 using an amine coupling kit (Biosensor AB) as follows: the chip was activated by 20 μl activation solution; the protein was immobilized using 12 μl 20 μg/ml protein in 10 mM sodium phosphate buffer pH 6.0; the chip was blocked by 35 μl blocking solution. Various peptides at the indicated concentrations were injected into the sensor chip. The curve corresponding to the difference between binding to receptor and a blank chip was used for analysis.
# GFRα1 receptor = molecular target: T1, GFRα1 receptor (Homo sapiens, UniProt P56159); experiment: Surface plasmon resonance (SPR) binding analysis, GFRα1; conditions: immobilized receptor protein, 25° C., PBS pH 7.4
# T1 sequence (P56159 25-429): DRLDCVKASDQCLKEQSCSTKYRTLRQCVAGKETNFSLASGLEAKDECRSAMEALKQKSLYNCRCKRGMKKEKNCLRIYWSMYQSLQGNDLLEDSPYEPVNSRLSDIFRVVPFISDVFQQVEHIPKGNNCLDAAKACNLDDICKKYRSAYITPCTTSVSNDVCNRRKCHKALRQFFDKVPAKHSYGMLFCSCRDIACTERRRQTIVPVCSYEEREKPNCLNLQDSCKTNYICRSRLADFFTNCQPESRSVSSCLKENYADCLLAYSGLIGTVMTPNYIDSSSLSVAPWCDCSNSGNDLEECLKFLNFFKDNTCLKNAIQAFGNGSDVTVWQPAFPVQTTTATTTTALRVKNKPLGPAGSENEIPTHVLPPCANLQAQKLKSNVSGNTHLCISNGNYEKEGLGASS
# Description: as §1
sequence,measurement,setting,value
"ETTYDKILKNLSRNR (listed as Homo sapiens) [G2, GDNF fragment]",survival of dopaminergic neurons,dopaminergic neurons,increases the survival of dopaminergic neurons
same,binding to the Ig1-2 modules of NCAM (SPR),Ig1-2 modules of NCAM,Binding
same,binding to the GFRα1 receptor (SPR),GFRα1 receptor,binding
